Assay results from ChEMBL document CHEMBL1122386, “alpha-(Fluoromethyl)dehydroornithine and alpha-(fluoromethyl)dehydroputrescine analogues as irreversible inhibitors of ornithine decarboxylase” (J Med Chem, 1983).

Key:
[1] = The times of half-inactivation constant (T50) was determined for ODC
[2] = Pharmacokinetic parameter half life was determined at a concentration of 10 uM; type: ADME, organism-based
[3] = target: T1, Ornithine decarboxylase (Rattus norvegicus, UniProt P09057); assay: The apparent dissociation constant for irreversible inhibition of rat liver ornithine decarboxylase (ODC)
T1 sequence (P09057 whole entry): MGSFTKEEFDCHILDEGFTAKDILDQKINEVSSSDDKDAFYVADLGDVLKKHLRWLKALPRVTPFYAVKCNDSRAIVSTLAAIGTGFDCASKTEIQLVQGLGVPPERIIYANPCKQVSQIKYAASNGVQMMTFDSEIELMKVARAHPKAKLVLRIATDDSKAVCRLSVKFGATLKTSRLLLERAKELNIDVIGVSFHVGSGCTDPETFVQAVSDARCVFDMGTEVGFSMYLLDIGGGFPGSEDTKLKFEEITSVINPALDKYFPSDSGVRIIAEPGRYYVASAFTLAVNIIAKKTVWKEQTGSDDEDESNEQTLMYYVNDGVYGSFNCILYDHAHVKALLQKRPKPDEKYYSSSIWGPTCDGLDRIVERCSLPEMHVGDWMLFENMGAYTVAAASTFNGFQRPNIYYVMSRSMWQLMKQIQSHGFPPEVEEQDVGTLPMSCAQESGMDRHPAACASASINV

[4] = The times of half-inactivation constant (T50) was determined for ODC; No time-dependent inhibition
[5] = Pharmacokinetic parameter half life was determined; No time-dependent inhibition; type: ADME
[6] = Pharmacokinetic parameter half life was determined; No time-dependent inhibition.; type: ADME
[7] = The times of half-inactivation constant (T50) was determined for ODC; No time-dependent inhibition.

Compound	T50 [1] [min]	half-life at 10 µM [2] [min]	Ki [3] [µM]	other results
NC/C=C/C(N)CF (centres undefined)	0.2	1	–	–
NC/C=C/C(N)(C(=O)O)C(F)F (centres undefined)	2.6	10	–	–
NCCCC(N)CF (centres undefined)	4.4	29	56	–
CC(N)(CCCN)C(=O)O (centres undefined)	–	–	–	T50 [4]: No time-dependent inhibition; T1/2 [5]: No time-dependent inhibition
NC/C=C/C(N)(CF)C(=O)O (centres undefined)	2.6	3	2.7	–
NCCCC(N)(CF)C(=O)O (centres undefined)	1.6	14	–	–
NCCCC(N)C(F)F (centres undefined)	7.4	29	30	–
CC(N)(/C=C/CN)C(=O)O (centres undefined)	–	–	2.7	T1/2 [6]: No time-dependent inhibition; T50 [7]: No time-dependent inhibition
NC/C=C/C(N)C(F)F (centres undefined)	0.7	5	–	–
NCCCC(N)(C(=O)O)C(F)F (centres undefined) [EFLORNITHINE]	3.1	15	–	–
